Test results taken from ChEMBL document CHEMBL6121036, “Evaluation of Cereblon-Directing Warheads for the Development of Orally Bioavailable PROTACs” (J Med Chem, 2025).
Values after ≈ are worked out from the molar mass of the structure shown. Active and inactive are the calls of the source. The calls are words filed in the database; no cut-off is given here.

How the values were obtained:
[1] = target: Protein cereblon/Bromodomain-containing protein 2 (Homo sapiens) (UniProt P25440+Q96SW2); assay: PROTAC activity at CRBN/BRD2 in human MV4-11 cells assessed as degradation of BRD2 incubated for 4 hrs by immunoblot analysis relative to control; assay type: cell-based
[2] = Effect on PLAU level in human MV4-11 cells assessed as fold change at 100 nM measured after 4 hrs; assay type: functional
[3] = Effect on NOP53 level in human MV4-11 cells assessed as fold change at 100 nM measured after 4 hrs; assay type: functional
[4] = Terminal elimination half life in female CD1 mouse at 3 mg/kg, iv measured upto 24 hrs by LC-MS/MS analysis; assay type: ADME, organism-based; details: in vivo, read-out: beta t1/2 (converted)
[5] = test system: MV4-11; assay: Downregulation of c-Myc level in human MV4-11 cells measured after 4 hrs by immunoblot analysis; assay type: functional, cell-based
[6] = Cmax in female CD1 mouse at 10 mg/kg, po measured upto 24 hrs by LC-MS/MS analysis; assay type: ADME, organism-based; details: in vivo
[7] = target: Protein cereblon (Homo sapiens) (UniProt Q96SW2); assay: Binding affinity to CRBN (unknown origin)
[8] = Effect on BRD4 level in human MV4-11 cells assessed as fold change at 100 nM measured after 4 hrs; assay type: functional
[9] = Effect on BRD3 level in human MV4-11 cells assessed as fold change at 100 nM measured after 4 hrs; assay type: functional
[10] = target: T1, Protein cereblon/Bromodomain-containing protein 4/DNA damage-binding protein 1 (Homo sapiens) (UniProt O60885+Q96SW2+Q16531); assay: Binding affinity to his-tagged CRBN/DDB1/GST-tagged BRD4 (49 to 170 residues)(unknown origin) assessed as ternary complex formation by measuring AUC incubated for 1 hr by luminescence based Alphascreen assay; assay type: protein assay
[11] = Clearance in female CD1 mouse at 3 mg/kg, iv measured upto 24 hrs by LC-MS/MS analysis; assay type: ADME, organism-based; details: in vivo
[12] = AUC in female CD1 mouse at 3 mg/kg, iv measured upto 24 hrs by LC-MS/MS analysis; assay type: ADME, organism-based; details: in vivo
[13] = Effect on RNF166 level in human MV4-11 cells assessed as fold change at 100 nM measured after 4 hrs; assay type: functional
[14] = Kinetic aqueous solubility of the compound at pH 7.4; assay type: physicochemical; details: read-out: Kinetic_solubility
[15] = Effect on CCNF level in human MV4-11 cells assessed as fold change at 100 nM measured after 4 hrs; assay type: functional
[16] = Effect on BRD2 level in human MV4-11 cells assessed as fold change at 100 nM measured after 4 hrs; assay type: functional
[17] = target: Protein cereblon/Bromodomain-containing protein 3 (Homo sapiens) (UniProt Q15059+Q96SW2); assay: PROTAC activity at CRBN/BRD3 in human MV4-11 cells assessed as degradation of BRD3 incubated for 4 hrs by immunoblot analysis relative to control; assay type: cell-based
[18] = Effect on CDC42EP3 level in human MV4-11 cells assessed as fold change at 100 nM measured after 4 hrs; assay type: functional
[19] = test system: HD-MB03; assay: Cytotoxicity against human HD-MB03 cells assessed as reduction in cell viability incubated for 72 hrs by cell-titer glo assay; assay type: functional, cell-based; details: HD-MB03, 72 h
[20] = Effect on ZFP36L2 level in human MV4-11 cells assessed as fold change at 100 nM measured after 4 hrs; assay type: functional
[21] = test system: MV4-11; assay: Cytotoxicity against human MV4-11 cells assessed as reduction in cell viability incubated for 72 hrs by cell-titer glo assay; assay type: functional, cell-based; details: MV4-11, 72 h
[22] = Oral bioavailability in female CD1 mouse at 10 mg/kg measured upto 24 hrs by LC-MS/MS analysis; assay type: ADME, organism-based; details: in vivo
[23] = Effect on MCL1 level in human MV4-11 cells assessed as fold change at 100 nM measured after 4 hrs; assay type: functional
[24] = Effect on TP53 level in human MV4-11 cells assessed as fold change at 100 nM measured after 4 hrs; assay type: functional
[25] = target: T2, Protein cereblon/Bromodomain-containing protein 4 (Homo sapiens, UniProt O60885+Q96SW2); assay: PROTAC activity at CRBN/Hibit-tagged BRD4 (unknown origin) expressed in HEK293 cells co-expressing LgBiT assessed as degradation of BRD4 incubated for 24 hrs by […] glo-max assay; assay type: cell-based
[26] = target: T1, Protein cereblon/Bromodomain-containing protein 4/DNA damage-binding protein 1 (Homo sapiens); assay: Binding affinity to his-tagged CRBN/DDB1/GST-tagged BRD4 (49 to 170 residues)(unknown origin) assessed as ternary complex formation (AUC) incubated for 1 hr by luminescence based Alphascreen assay; assay type: protein assay
[27] = Effect on PLK1 level in human MV4-11 cells assessed as fold change at 100 nM measured after 4 hrs; assay type: functional
[28] = AUC last in female CD1 mouse at 10 mg/kg, po measured upto 24 hrs by LC-MS/MS analysis; assay type: ADME, organism-based; details: in vivo
[29] = Effect on MYC level in human MV4-11 cells assessed as fold change at 100 nM measured after 4 hrs; assay type: functional
[30] = Effect on FGL2 level in human MV4-11 cells assessed as fold change at 100 nM measured after 4 hrs; assay type: functional
[31] = Stability in mouse plasma assessed as half life by UPLC-MS/MS analysis; assay type: ADME, cell-free
[32] = Chemical stability in human MV4-11 cell culture media at 400 uM measured upto 72 hrs by UPLC analysis; assay type: physicochemical
[33] = Metabolic stability in mouse liver microsomes assessed as half life; assay type: ADME, Microsome; details: liver microsomes
[34] = Effect on AURKA level in human MV4-11 cells assessed as fold change at 100 nM measured after 4 hrs; assay type: functional
[35] = target: T2, Protein cereblon/Bromodomain-containing protein 4; assay: PROTAC activity at CRBN/BRD4 in human MV4-11 cells assessed as degradation of BRD4 incubated for 4 hrs by immunoblot analysis; assay type: cell-based
[36] = Permeability in MDCK-II cells incubated for 1 hr by UPLC/MS/UV analysis; assay type: ADME, cell-based, Canis lupus familiaris; details: dog, read-out: permeability
[37] = target: T2, Protein cereblon/Bromodomain-containing protein 4; assay: PROTAC activity at CRBN/Hibit-tagged BRD4 (unknown origin) expressed in HEK293 cells co-expressing LgBiT assessed as degradation of BRD4 incubated for 24 hrs by […] glo-max assay relative to control; assay type: cell-based
[38] = Effect on FYTTD1 level in human MV4-11 cells assessed as fold change at 100 nM measured after 4 hrs; assay type: functional
[39] = Chemical stability in human HD-MB03 cell culture media at 400 uM measured upto 72 hrs by UPLC analysis; assay type: physicochemical
[40] = Effect on CCND3 level in human MV4-11 cells assessed as fold change at 100 nM measured after 4 hrs; assay type: functional
[41] = Effect on ZBTB21 level in human MV4-11 cells assessed as fold change at 100 nM measured after 4 hrs; assay type: functional
[42] = target: T2, Protein cereblon/Bromodomain-containing protein 4; assay: PROTAC activity at CRBN/Hibit-tagged BRD4 (unknown origin) expressed in HEK293 cells co-expressing LgBiT assessed as degradation rate incubated for 24 hrs by […] glo-max assay; assay type: cell-based
[43] = test system: MV4-11; assay: Upregulation of p53 level in human MV4-11 cells measured after 4 hrs by immunoblot analysis; assay type: functional, cell-based
[44] = test system: HEK293; assay: Cytotoxicity against HEK293 cells expressing LgBiT fused HiBiT-BRD2 measured after 24 hrs by cell titer-glo assay; assay type: toxicity, cell-based; details: human, hek293, 24 h
[45] = Volume of distribution in female CD1 mouse at 3 mg/kg, iv measured upto 24 hrs by LC-MS/MS analysis; assay type: ADME, organism-based; details: in vivo
[46] = Effect on NSA2 level in human MV4-11 cells assessed as fold change at 100 nM measured after 4 hrs; assay type: functional
[47] = Chemical stability in human MV4-11 cell culture media assessed as half life; assay type: physicochemical
[48] = Chemical stability in human HD-MB03 cell culture media assessed as half life; assay type: physicochemical
[49] = Permeability in human MV4-11 cells assessed as cell availability index relative to lenalidomide; assay type: ADME, cell-based

Cc1sc2c(c1C)C(c1ccc(Cl)cc1)=N[C@@H](CC(=O)N1CCC(CN3CCN(c4ccc(C5CCC(=O)NC5=O)cc4)CC3)CC1)c1nnc(C)n1-2 (some centres undefined)
Activity [1]: > 90% | fold change (FC) [2]: -1.2 | fold change (FC) [3]: -0.91 | half-life [4]: 3.4 h | Activity [5]: Active | Cmax [6]: 2440 ng/mL | Activity [7]: Active | fold change (FC) [8]: -3.85 | fold change (FC) [9]: -3.85 | AUC [10]: 281000 | clearance [11]: 8.85 mL/min/kg | AUC at 24 h [12]: 5540 ng·h/mL | fold change (FC) [13]: -0.12 | solubility kinetic [14]: 48.4 µM (≈ 36.5 µg/mL) | fold change (FC) [15]: -1.13 | fold change (FC) [16]: -3.52 | Activity [17]: > 90% | fold change (FC) [18]: -1.38 | IC50 [19]: 0.92 nM | fold change (FC) [20]: -1.18 | IC50 [21]: 0.12 nM | bioavailability [22]: 45% | fold change (FC) [23]: -1.21 | fold change (FC) [24]: 1.92 | DC50 [25]: 0.19 nM | Activity [26]: Active | fold change (FC) [27]: -0.81 | AUC(0-t) at 24 h [28]: 8060 ng·h/mL | fold change (FC) [29]: -2.05 | fold change (FC) [30]: -1.16 | half-life [31]: 7.3 h | Stability [32]: Stable | half-life [33]: 1.3 h | fold change (FC) [34]: -0.97 | DC50 [35]: 0.127 nM | Papp at 1 h [36]: 1.7 ×10⁻⁶ cm/s | Emax [37]: 96.9% | fold change (FC) [38]: -1.67 | Stability [39]: Stable | fold change (FC) [40]: -0.99 | fold change (FC) [41]: -0.15 | Activity [42]: 0.292 fRLU/hr | Activity [43]: Active | Activity [44]: Non-toxic | Vd [45]: 0.85 L/kg | fold change (FC) [46]: -1.05

Cc1sc2c(c1C)C(c1ccc(Cl)cc1)=N[C@@H](CC(=O)NCCCCNC(=O)COc1cccc3c1C(=O)N(C1CCC(=O)NC1=O)C3=O)c1nnc(C)n1-2 (some centres undefined)
half-life [47]: 4.2 h | half-life [48]: 4.2 h | Ratio [49]: 140
